Results reported in patent US9163066B2, “Antimicrobial lytic peptides” (priority 2010, dated 2015).

What was measured:
Aspergillus flavus = experiment: Antimicrobial activity against pathogens (MIC80 / MBC100); type: cell-based; settings: concentration of D4E1 necessary to kill 100% of the pathogens
From the text: (§1) A comparison of antimicrobial activity for these two naturally occurring peptides against various pathogens (combined fungal and bacterial) is summarized below

Aspergillus fumigatus = experiment: as above; type: cell-based; settings: concentration necessary to kill 100%
From the text: as §1

Erwinia stewartii = experiment: as above; type: cell-based; settings: concentration necessary to kill 100%
From the text: as §1

Fusarium moniliforme = experiment: as above; type: cell-based; settings: concentration necessary to kill 100%
From the text: as §1

Fusarium oxysporum = experiment: as above; type: cell-based; settings: concentration necessary to kill 100%
From the text: as §1

Xanthomonas campestris = experiment: as above; type: cell-based; settings: concentration necessary to kill 100%
From the text: as §1

bacteria = experiment: Antibacterial activity of the peptides, broth microdilution MIC, mean activity (Table II); type: cell-based; settings: overnight incubation (18 to 24 h)
Procedure: Minimum Inhibitory Concentration or MIC for the purpose of this invention is the lowest concentration of an antimicrobial that will inhibit the visible growth of a microorganism after overnight incubation. Minimum inhibitory concentrations are important in diagnostic laboratories to confirm resistance of microorganisms to an antimicrobial agent and also to monitor the activity of new antimicrobial agents. A MIC is generally regarded as the most basic laboratory measurement of the activity of an antimicrobial agent against an organism. MBC is defined as the lowest concentration of an antimicrobial agent needed to kill 99.9% of the initial organism inoculum. Presently, specific guidelines for interpretation are not available; therefore, a clinician knowledgeable in both bactericidal testing and infectious diseases should be available to interpret the results.
MICs were determined by the broth microdilution method described by the National Committee for Clinical Laboratory Standards (17). Serial twofold dilutions of each peptide solution were prepared (final volume, […]) in microtiter trays with appropriate medium. Each dilution series included control wells containing bacteria without peptide. A total of […] of the adjusted inoculum (100,000 organisms) was added to each well, and then the trays were incubated at
in ambient air overnight (18 to 24 h). The MIC of each peptide for each isolate was read as the lowest concentration of peptide that inhibited visible growth of the organism.
The above in vitro tests and analyses were conducted on a set of designed peptides of the present invention; and, for comparative purposes, naturally derived molecules.

[1] = tested on: red blood cells (erythrocytes); experiment: Hemolytic activity of the peptides (hemoglobin release, absorbance at 412 nm); type: cell-based
Procedure: Hemolysis as defined herein is an in vitro assay where the compounds tendency to lyse red blood cells is determined. Presumably, the compounds that are less hemolytic will be less toxic in vivo. Increasing amounts of compound are added to solutions containing red blood cells and left for a specified time and then lysis is determined spectrophotometrically by measuring hemoglobin release.
A small volume of a suspension of erythrocytes (about 100 million) is kept on ice with a specific amount of lytic peptide. The cells are then placed in a 37° C. water bath for 10 min, vortexed and centrifuged at 1000 g for 2 min. The supernatant was removed and the amount of hemoglobin that was released was determined by the samples' absorbance at 412 nm. Control values without added peptide were subtracted from the absorbance readings.
The numerical difference between the value of the mean of hemolysis and the mean of the activity is a useful way to determine those peptides having the most desired activity.

[2] = tested on: pathogens of cotton, poplar and pome fruits such as pears and apples; settings: tested by a number of labs throughout the world; cited from earlier work
angiogenesis = settings: known activity, seen as a safety problem for humans; cited from earlier work

Sequence | D4E1 MBC100 (Aspergillus flavus) [µM] | D4E1 MBC100 (Aspergillus fumigatus) [µM] | D4E1 MBC100 (Erwinia stewartii) [µM] | D4E1 MBC100 (Fusarium moniliforme) [µM] | D4E1 MBC100 (Fusarium oxysporum) [µM] | D4E1 MBC100 (Xanthomonas campestris) [µM] | Mean Activity (bacteria) [µM] | Mean of Hemolysis [1] [µM] | efficacy in limiting plant pathogens [2] | activities in mammals (angiogenesis)
FKLRAKIKVRLRAKIKL [D4E1, D4E1 (AgroMed), earlier synthetic lytic peptide tested by a number of labs] | 12 | 12 | 1 | 3 | 3 | 2 | 0.77 | 3.6 | efficacious in limiting pathogens of cotton, poplar and pome fruits | –
RRRPRPPYLPRPRPPPFFPPRLPPRIPPGFPPRFPPRFP [PR39, antimicrobial peptide found in swine] | – | – | – | – | – | – | – | – | – | stimulation of angiogenesis
